According to PMC6753210, “^18F-Labeled Cyclized α-Melanocyte-Stimulating Hormone Derivatives for Imaging Human Melanoma Xenograft with Positron Emission Tomography” (Scientific Reports, 2019):
Blank lines part the entries; values can stand above or below the molecule they belong to.

Key:
[1] = tested on: SK-MEL-1 human melanoma xenografts; assay: Biodistribution in NSG mice bearing human SK-MEL-1 melanoma xenografts; type: in vivo, mouse; conditions: 1 h p.i.
Method: (§1) All animal experiments were conducted in according to the guidelines established by Canadian Council on Animal Care and approved by Animal Ethics Committee of the University of British Columbia. Male C57BL/6 J and immunodeficient NSG mice were obtained from an in-house breeding colony at the BC Cancer Research Centre. For tumor implantation, mice were anesthetized by inhalation with 2% isoflurane, 1 × 10^6 B16-F10 and 5 × 10^6 SK-MEL-1 cells were inoculated subcutaneously on the right dorsal flank of C57BL/6J and NSG mice, respectively. Mice were used for imaging or biodistribution studies when the tumors reached 6–8 mm in diameter.
(§2) μPET/μCT imaging and biodistribution experiments were performed on a μPET/μCT scanner (Inveon, Siemens) using previously published procedures. Briefly, tumor-bearing mice were injected with approximately 3.0–5.0 MBq (for imaging) or <1.5 MBq (for biodistribution) of radiolabeled peptides via tail vein under sedation (2% isoflurane inhalation). For [^18F]FDG imaging and biodistribution, mice underwent fasting overnight prior to the experiments. Imaging studies were performed in duplicate or triplicate. […] After injection, mice were allowed to recover and roam freely in their cages. At 1 or 2 h p.i., mice were anesthetized again and positioned in the scanner. A baseline CT scan was obtained for localization and attenuation correction, followed by a 10–15 min static μPET scan. For biodistribution studies, mice were euthanized by CO2 inhalation, blood was withdrawn promptly, and the tissues of interest were harvested, rinsed, and blotted dry. All tissues were weighed and the radioactivity of the collected samples was measured using a WIZARD 2480 gamma counter.

[2] = as above; type: in vivo, mouse; conditions: male, NSG, mouse, SK-MEL-1 tumor, iv, total radioactivity, 1 h p.i., n = 4
Method: as §1, §2

MC1R = molecular target: T1, MC1R (Mus musculus, UniProt Q01727); assay: In vitro competition binding assay with [^125I]NDP-αMSH on B16-F10 cells; conditions: 0.1 nM [^125I]NDP-αMSH, 25 °C, 1 h, n = 3
T1 construct: endogenous in cells; host or cells: B16-F10 mouse melanoma cells
Method: Receptor binding affinity of CCZ01096 was assessed using previously published procedures. Briefly, approximately 500,000 B16-F10 cells/well were seeded onto 24 well poly-D-lysine plates overnight. The cells were washed with PBS and the growth media was replaced by the reaction buffer described above. Increasing concentrations of non-radioactive CCZ01096 (0.5 pM to 5 μM) along with 0.1 nM of [^125I]NDP-αMSH were also added. The reaction mixture was incubated at 25 °C with moderate agitation for 1 h. Cells were washed with ice-cold PBS, harvested, and measured for radioactivity on a WIZARD 2480 gamma counter.

[3] = NSG mice, SK-MEL-1 xenograft, unblocked, n = 5 ([^18F]FDG n = 4)

T1 sequence (Q01727 whole entry): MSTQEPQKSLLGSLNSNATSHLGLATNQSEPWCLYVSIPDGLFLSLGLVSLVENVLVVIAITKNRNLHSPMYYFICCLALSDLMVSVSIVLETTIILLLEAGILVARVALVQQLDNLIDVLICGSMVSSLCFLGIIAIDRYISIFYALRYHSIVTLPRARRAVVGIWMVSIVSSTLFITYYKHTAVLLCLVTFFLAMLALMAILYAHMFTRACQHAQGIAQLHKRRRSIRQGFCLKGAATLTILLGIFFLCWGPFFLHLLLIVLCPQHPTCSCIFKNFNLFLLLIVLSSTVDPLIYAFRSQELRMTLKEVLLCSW

Adrenal glands uptake [1, 3]: 2.05±0.28 %ID/g
Blood uptake [1, 3]: 0.95±0.27 %ID/g
Bone uptake [1, 3]: 0.86 ± 0.35 %ID/g
Brain uptake [1, 3]: 9.54 ± 1.69 %ID/g
Fat uptake [1, 3]: 0.86±0.21 %ID/g
Heart uptake [1, 3]: 8.80 ± 4.42 %ID/g
Intestines uptake [1, 3]: 3.95 ± 0.16 %ID/g
Kidneys uptake [1, 3]: 3.01±0.28 %ID/g
Liver uptake [1, 3]: 1.48±0.14 %ID/g
Lungs uptake [1, 3]: 3.42±0.40 %ID/g
Muscle uptake [1, 3]: 1.75 ± 0.54 %ID/g
Pancreas uptake [1, 3]: 1.41±0.20 %ID/g
Seminal glands uptake [1, 3]: 4.63 ± 0.57 %ID/g
Spleen uptake [1, 3]: 3.59±0.68 %ID/g
Stomach uptake [1, 3]: 1.00±0.11 %ID/g
Testes uptake [1, 3]: 1.15±1.03 %ID/g
Thyroid uptake [1, 3]: 2.72±0.13 %ID/g
Tumor/Blood ratio [1, 3]: 7.64±2.06
Tumor/Bone ratio [1, 3]: 8.83±2.62
Tumor/Kidneys ratio [1, 3]: 2.30±0.04
Tumor/Muscle ratio [1, 3]: 4.22±1.30
SK-MEL-1 tumor uptake ([1]; NSG mice, SK-MEL-1 xenograft, tail vein, unblocked, gamma counter, n = 5 ([^18F]FDG n = 4)): 6.91 ± 0.66 %ID/g
SMILES: OC[C@H]1OC(O)[C@H]([18F])[C@@H](O)[C@@H]1O (stereo partly drawn) [[^18F]FDG, 2-[^18F]fluorodeoxyglucose]

tissue uptake at 1 h ([2]; 5.9 pmol, without co-injection, total injected peptide mass 5.9 ± 0.90 pmol): 6.15 ± 0.22 %ID/g
tissue uptake at 1 h ([2]; co-injection of 20 pmol ^natGa-CCZ01048, total peptide mass 27.5 ± 0.6 pmol): 2.66 ± 0.22 %ID/g
tissue uptake at 1 h ([2]; co-injection of 50 pmol ^natGa-CCZ01048, total peptide mass 57.3 ± 1.0 pmol): 1.31 ± 0.13 %ID/g
tissue uptake at 1 h ([2]; co-injection of 100 pmol ^natGa-CCZ01048, total peptide mass 109 ± 1.0 pmol): 1.04 ± 0.17 %ID/g
SMILES: CCCC[C@H](NC(=O)CN1CCC(NC(=O)CN2CCN(CC(=O)O)CCN(CC(=O)O)CCN(CC(=O)O)CC2)CC1)C(=O)N[C@H]1CC(=O)NCCCC[C@@H](C(N)=O)NC(=O)[C@H](Cc2c[nH]c3ccccc23)NC(=O)[C@H](CCCNC(=N)N)NC(=O)[C@@H](Cc2ccccc2)NC(=O)[C@H](Cc2c[nH]cn2)NC1=O [[^68Ga]Ga-CCZ01048, metal not drawn]
Reduction of tumor uptake ([1]; co-injection of 20 pmol ^natGa-CCZ01048 vs none): 57%
Reduction of tumor uptake ([1]; co-injection of 50 pmol ^natGa-CCZ01048 vs none): 79%
Reduction of tumor uptake ([1]; co-injection of 100 pmol ^natGa-CCZ01048 vs none): 83%

Ki (MC1R): 0.51 ± 0.08 nM
SMILES: CCCC[C@H](NC(=O)CN1CCC(NC(=O)C(CCCCNC(=O)Cn2cc(C[N+](C)(C)C[B-](F)(F)F)nn2)NC(=O)Cn2cc(C[N+](C)(C)C[B-](F)(F)F)nn2)CC1)C(=O)N[C@H]1CC(=O)NCCCC[C@@H](C(N)=O)NC(=O)[C@H](Cc2c[nH]c3ccccc23)NC(=O)[C@H](CCCNC(=N)N)NC(=O)[C@@H](Cc2ccccc2)NC(=O)[C@H](Cc2c[nH]cn2)NC1=O (stereo partly drawn) [CCZ01096]
